Measured values reported in patent publication US8215314B2, “Photochemical tissue bonding” (The General Hospital Corporation, priority 2000, dated 2012).

Key:
[1] = test system: corneal incision, rabbit eyes ex vivo; assay: IOP required to produce fluid leakage from corneal incision (IOPL) after PTB, ex vivo; details: 488 nm
[2] = test system: corneal incision, rabbit eyes ex vivo; assay: as above; details: for mean IOPL: 4.5 mM, 351 nm
Description: PTB can be used to seal or repair a tissue, e.g., a wound, e.g., a corneal wound. This example illustrates the experimental procedure designed to test the efficacy of PTB, as described herein, using mammalian corneas ex vivo. Experiments were performed according to the following procedure.
Rabbit eyes were received on ice (Pel-Freez Biologicals) approximately 17-24 hours after sacrifice and enucleation. The eyes were kept on ice and used the same day. The eye to be studied was mounted on a plastic-covered polystyrene block and fixed in position by needles inserted through the extraocular muscles into the polystyrene. The eye was then placed under a dissecting microscope (Reichert Scientific Instruments, Ill.) allowing visualization of the treated area during the entire procedure. A 27 G needle was inserted parallel to the iris, 2 mm anterior to the limbus into clear cornea, and positioned above the lens in the anterior chamber. The needle was connected to both a blood pressure transducer (Harvard Apparatus, Mass.) and a mini-infuser 400 (Bard Harvard) via a T coupler. The pressure transducer consists of a transducer element that is hard wired to an amplifier box and uses a semi-disposable dome with an integral silicone rubber membrane. Pressure inside the dome is transmitted through the membrane to a plastic button whose motion is translated to a voltage. The voltage generated by the transducer amplifier combination is proportional to the […] intraocular pressure (IOP). Signals from the transducer amplifier were recorded using a Macintosh G3 Power book equipped with a PCMICA (DAQCARD—1200) data acquisition card (National Instruments, Tex.). Data acquisition was controlled using programs written using the LabView 4 software package (National Instruments, Tex.). The voltage from the transducer and amplifier was converted to pressure by calibrating with a standing manometer.
Experiments on individual eyes were initiated by increasing the IOP to 30-40 mm Hg, using water infusion at a rate of 1 mL per minute. An incision was made in the cornea, 1 mm from the limbus and parallel to the iris, using a 3.5 mm angled keratome (Becton Dickinson Co.). For each eye the IOP required to produce fluid leakage from the incision (IOPL) was recorded pre- and post-PTB treatment. A photosensitizer, dissolved in phosphate buffer solution (PBS, pH 7.2, Gibco BRL) was applied to the walls of the incision using a Gastight, 50 μl syringe (Hamilton Co.) with a 27 G needle.
Irradiations employed a continuous wave (CW) argon-ion laser (Innova 100; Coherent, Inc., Palo Alto, Calif.) at 488 nm (for Fl and R-5-P), 514.5 nm (for RB) or 351 nm (for NHPT). An argon-ion-pumped dye laser (CR-599; Coherent) with 4-dicyanomethylene-2-methyl-6-(p-dimethylaminostyryl)-4H-pyran dye (Exciton, Inc., Dayton, Ohio) was used for irradiation at 661 nm (for MB). Laser light was coupled into a 1 mm diameter quartz fiber and a 1 cm diameter spot on the tissue was created by using a combination of 1 and 2 inch focal length, S1-UV grade fused silica, biconvex lenses (Esco Products), mounted in a SM1 series cage assembly (Thorlabs, N.J.). The 1 cm diameter circular spot was sufficient to cover the entire incision and the optics were adjusted so that the laser light was incident on the cornea at an angle approximately 45° to the plane of the incision. Dose response curves were obtained by varying the duration of the irradiation at a constant irradiance. In separate experiments the effects of laser irradiance were investigated by comparison of the same delivered dose using different irradiances. The doses used ranged from 124 to 1524 J/cm^2 and the irradiances used were 0.64, 1.27, 2.55 and 3.86 W/cm^2. The laser exposure time varied from 33 seconds for the lowest dose using the highest irradiance to 26 minutes, 27 seconds for the highest dose using the lowest irradiance. The IOPL was recorded immediately following treatment. […]

[3] = Absorption maxima and absorption coefficients of photosensitizers; type: physicochemical; details: for absorption coefficient at the laser wavelength used: RB at 514 nm, Fl at 488 nm, MB at 661 nm, R-5-P at 488 nm, N-HPT at 351 nm
Description: The photosensitizers were used as received with the exception of N-HPT which was recrystallized twice from aqueous ethanol before use.

SMILES	IOPL ([1]; 0.6 mM Fl, 762 J/cm^2 at 3.82 W/cm^2)	post-treatment IOPL ([2]; MB 3 mM, 661 nm, 0.64 W/cm^2, doses 508, 762 and 1016 J/cm^2)	absorption maximum [3]	absorption coefficient at the laser wavelength used [3]	mean IOPL ([2]; 0.64 W/cm2, 254 J/cm2)	mean IOPL ([2]; 0.64 W/cm2, 508 J/cm2)	post PTB treatment IOPL value ([1]; 11 mM R-5-P, 762 and 1016 J/cm^2, 1.27-3.82 W/cm^2, p<0.05)
O=C1OC2(c3ccc(O)cc3Oc3cc(O)ccc32)c2ccccc21 [Fl, fluorescein]	116±40 mm Hg	–	–	–	–	–	–
CN(C)c1ccc2nc3ccc(=[N+](C)C)cc-3sc2c1 [MB, methylene blue]	–	did not increase	664 nm	15600 dm^3 mol^−1 cm^−1	–	–	–
On1ccccc1=S [N-HPT, N-hydroxypyridine-2-(1H)-thione]	–	–	314 nm	2110 dm^3 mol^−1 cm^−1	60±23 mm Hg	126±40 mm Hg	–
Cc1cc2nc3c(=O)[nH]c(=O)nc-3n(C[C@H](O)[C@H](O)[C@H](O)COP(=O)(O)O)c2cc1C [R-5-P, riboflavin-5-phosphate]	–	–	445 nm	4330 dm^3 mol^−1 cm^−1	–	–	significantly increased
